Reference: patent US20130089591A1, “Compositions” (Givaudan SA, priority 2010, published 2013)

Legend:
[1] = Water solubility of the aldehyde
[2] = Aggregation of polyurea capsules, Method 5.6; type: physicochemical; design: key: ∘: no aggregation of the capsules; +: aggregation of few capsules together only visible under microscopy; ++: aggregates of mm size; +++: important aggregation; ++++: aggregation is such that a cake is obtained; settings: polyurea Method 5.6, phase A of Table 1; for Encapsulation, No precursor (scale of aggregation): free aldehyde as phase B; for Encapsulation, With precursor (scale of aggregation): precursor (Method 1.1) as phase B
Procedure: An oil phase was prepared when Desmodur VL R20 (Bayer) was added in perfume oil at a level of 2.5%.
An aqueous phase (Solution S1) was prepared when Mowiol 4-88 (Kururay) was added in water, at a level of 0.1%.
An aqueous phase (Solution S2) was prepared when diethylentriamine (Merck) was added in water, at a level of 2%.
100 g of oil phase was mixed with 250 g of solution S1, to form an oil-in-water emulsion, in a 500 mL vessel equipped with a propeller operating at 1000 rpm.
After 10 min of stirring, 50 g of solution S2 was added.
The slurry was stirred for 4 h at room temperature.
The Method 5.6 of Example 5 was applied to encapsulate different perfume oils described as phase A (non aldehyde raw materials) and phase B (aldehyde raw materials).
The composition of Phase A is described in Table 1. Phase B is an aldehyde perfume molecule used as such or as its precursor form prepared according to Method 1.1.
According to the aspect of the slurry a scale of aggregation has been defined as follow: […]
(§1) ∘ no aggregation of the capsules + aggregation of few capsules together only visible under microscopy ++ aggregates of mm size +++ important aggregation ++++ aggregation is such that a cake is obtained

[3] = Aggregation of polyurea capsules, Method 5.5; type: physicochemical; design: key: ∘: no aggregation of the capsules; +: aggregation of few capsules together only visible under microscopy; ++: aggregates of mm size; +++: important aggregation; ++++: aggregation is such that a cake is obtained; settings: polyurea Method 5.5, phase A of Table 1; for Encapsulation, No precursor (scale of aggregation): free aldehyde as phase B; for Encapsulation, With precursor (scale of aggregation): precursor (Method 1.1) as phase B
Procedure: An oil phase was prepared when Desmodur W and Desmodur N3300 (Bayer) were added in perfume oil at a level of 2.2% and 13% respectively.
An aqueous phase (Solution S1) was prepared when Gantrez AN119 (ISP) was added to water, at a level of 1.6%. The solution was heated at 70° C. for 10 min to disperse the polymer.
An aqueous phase (Solution S2) was prepared when Ethylene diamine (Merck) was added to water, at a level of 7.5%.
30 g of the oil phase was mixed with 80 g of solution S1, to form an oil-in-water emulsion, in a 250 mL vessel equipped with a propeller operating at 1000 rpm.
After 10 min of stirring, 20 g of solution S2 was added.
The slurry was stirred for 30 min at room temperature, then heated to 60° C. and stirred for 3 H at 60° C. before cooling.
The Method 5.5 of Example 5 was applied to encapsulate different perfume oils described as phase A (non aldehyde raw materials) and phase B (aldehyde raw materials).
The composition of Phase A was described in Table 1 above. Phase B is an aldehyde perfume molecule used as such or as its precursor form prepared according to Method 1.1.
According to the aspect of the slurry a scale of aggregation was defined as follow: […]
as §1
Phase B was added at a level of 20% of aldehyde in phase A.

[4] = Aggregation of polyurea capsules, Method 5.1; type: physicochemical; settings: for Encapsulation (aggregation): free aldehyde at 5% in IPM
Procedure: An oil phase was prepared by adding Desmodur W (Isocyanate from Bayer) to a perfume oil at a level of 16.6%.
An aqueous phase (solution S1) was prepared by adding Luviskol k90 (BASF) to water, at a level of 4.5%. The pH of the solution was adjusted to 11.5 by addition of NaOH at 10%.
An aqueous phase (Solution S2) was prepared when Lupasol PR8515 (BASF) was added to water, at a level of 10%.
300 g of the oil phase was mixed with 500 g of solution S1, to form an oil-in-water emulsion, in a 1 L reactor equipped with a MIG stirrer operating at 1000 rpm.
After 30 minutes of mixing, 200 g of solution S2 was added over a period of 1 minute.
After 30 minutes, the slurry was heated up to 70° C. (1 H), then kept for 2 H at 70° C., then heated to 80° C. and kept for 1 H at 80° C., then heated to 85° C. and kept for 1 H at 85° C., then cooled to 70° C. and kept for 1 H at 70° C. before final cooling at 25° C.
The Method 5.1 of Example 5 was applied to encapsulate different perfume oils described as phase A (non aldehyde raw materials) and phase B (aldehyde raw materials).
In the following trials, phase A was IPM and phase B was aldehyde perfume molecules. Phase B was added at a level of 5% in phase A.
Phase B contains aldehyde C11 iso or the corresponding precursor prepared according to Method 1.1.
Phase B was added at a level of 5% in phase A.

[5] = Aggregation of polyamide capsules (Example 2 method); type: physicochemical; design: key to Encapsulation, No precursor (scale of aggregation) / Encapsulation, With precursor (scale of aggregation): ∘: no aggregation of the capsules; +: aggregation of few capsules together only visible under microscopy; ++: aggregates of mm size; +++: important aggregation; ++++: aggregation is such that a cake is obtained; settings: for Encapsulation, No precursor (scale of aggregation): free aldehyde as phase B at 5% in phase A of Table 1; for Encapsulation, With precursor (scale of aggregation): precursor of the aldehyde (Method 1.1) as phase B at 5% in phase A of Table 1
Procedure: An oil phase was prepared by dissolving isophtahaloyl dichloride (Fluka) in oil (oil composition specified in the examples below) at a level of 10%
An aqueous solution (Solution S1) was prepared by dissolving a polyvinyl alcohol Mowiol 4-88 (Kuru ray) in water at a level of 1%.
An aqueous solution (Solution S2) was prepared when triethylentetraamine (Hunstman) was diluted in water at a level of 3%.
100 g of the oil phase was mixed with 450 g of solution S1 to form an oil-in-water emulsion in a 1 L reactor equipped with a MIG stirrer operating at 1000 rpm. After 5 minutes of mixing, 450 g of solution S2 was slowly added. The resultant slurry of polyamide capsules was kept under stirring for 2 H.
Two capsule populations were formed. A first encapsulating IPM (isopropyl myristate) and a second containing IPM+5% of ethyl vaniline. The capsules were made according to the method of Example 2.
The methodology of Example 2 was applied to encapsulate different perfume oils described as phase A (non aldehyde raw materials) and phase B (aldehyde raw materials).
The phase B was added at 5% to the phase A prior to encapsulation. Different compositions of phase B have been used corresponding each time to a single aldehyde perfume molecule or to its precursor formed according to the methodology of Method 1.1, above.
According to the condition of the slurry a scale of aggregation has been defined as follows: […]
as §1

Water solubility ([1]; Table of Example 13) [ppm]	Encapsulation, No precursor (scale of aggregation) [2]	Encapsulation, With precursor (scale of aggregation) [2]	Molecule	other results
344	++++	∘	CC(C)=CCCC(C)C=O (stereo not drawn) [Melonal, 2,6-dimethyl-5-heptenal]	–
1800	+++	∘	CC(CC=O)CCCC(C)(C)O (stereo not drawn) [Hydroxycitronellal]	Encapsulation, No precursor (scale of aggregation) [3]: ++++; Encapsulation, With precursor (scale of aggregation) [3]: ∘; Encapsulation (aggregation) [4]: Aggregation; Water solubility ([1]; Table 3): 1800 ppm; Water solubility ([1]; Table of Example 11): 1800 ppm
160	+++	∘	CC(CC=O)CC(C)(C)C (stereo not drawn) [Ald C9 isononylic]	–
–	++++	∘	CCCCCCCCCCCC=O [Aldehyde C12 laurique]	Encapsulation, No precursor (scale of aggregation) [3]: ++; Encapsulation, With precursor (scale of aggregation) [3]: ∘; Encapsulation (aggregation) [4]: Aggregation; Encapsulation, No precursor (scale of aggregation) [5]: +++; Encapsulation, With precursor (scale of aggregation) [5]: ∘
–	∘	∘	CC1(C)CCCC2=C1CC(C=O)CC2 (stereo not drawn) [Cyclomyral]	–
–	∘	∘	CCCCCCCCCC(C)C=O (stereo not drawn) [Aldehyde C12 mna]	Encapsulation, No precursor (scale of aggregation) [3]: ∘; Encapsulation, With precursor (scale of aggregation) [3]: ∘; Encapsulation, No precursor (scale of aggregation) [5]: ++; Encapsulation, With precursor (scale of aggregation) [5]: ∘
–	++++	∘	CCCCCC=O [Capronaldehyde (hexanal)]	–
–	–	–	Aldehyde iso C11	Slurry aspect ([4]; phase B at 5% in phase A of Table 4, listed as Aldehyde C11 iso): Cake; Slurry aspect ([4]; phase B at 5% in phase A of Table 4, listed as aldehyde C11 iso): aggregate; Water solubility ([1]; Table 2): 30 ppm; Encapsulation, No precursor (scale of aggregation) [5]: +++; Encapsulation, With precursor (scale of aggregation) [5]: +
280	++	∘	CC(C)c1ccc(C=O)cc1 [Cuminic ald]	–
61	++++	∘	CCCCCCCCCC=O [Aldehyde C10]	Encapsulation, No precursor (scale of aggregation) [3]: +++; Encapsulation, With precursor (scale of aggregation) [3]: ∘; Encapsulation (aggregation) [4]: Aggregation; Water solubility ([1]; Table 2): 61 ppm; Water solubility ([1]; Table 3): 61 ppm; Water solubility ([1]; Table of Example 11): 61 ppm; Encapsulation, No precursor (scale of aggregation) [5]: +++; Encapsulation, With precursor (scale of aggregation) [5]: +
650	+	+	CC(C=O)c1ccccc1 (stereo not drawn) [Hydratropic ald]	–
–	–	–	COc1ccc(C=O)cc1 [Aubepine para cresol]	Water solubility ([1]; Table 2): 6 ppm; Encapsulation, No precursor (scale of aggregation) [5]: ++; Encapsulation, With precursor (scale of aggregation) [5]: ∘
–	–	–	CC(C)c1cccc(C(C)CC=O)c1 (stereo not drawn) [Florhydral]	Encapsulation (aggregation) [4]: Aggregation; Water solubility ([1]; Table 3): 51 ppm
–	–	–	CCOc1cc(C=O)ccc1O [ethyl vaniline]	Aggregation, microscopic examination ([5]; IPM + 5% aldehyde): significant aggregation
100	∘	∘	CC(CC=O)CCc1ccccc1 (stereo not drawn) [Mefranal]	–
–	++	∘	COC1CC2CC1C1CC(C=O)CC21 (stereo not drawn) [Scentenal]	–
–	∘	∘	CC(C)(O)CCCC1=CCC(C=O)CC1 (stereo not drawn) [Cyclohexal]	–
580	∘	∘	C/C(C=O)=C\c1ccccc1 [Methyl cinnamic ald]	–
2	+	∘	CCCCCC/C(C=O)=C\c1ccccc1 [Hexyl cinnamic ald]	–

Molecule	Water solubility ([1]; Table of Example 13) [ppm]	Encapsulation, No precursor (scale of aggregation) [2]	Encapsulation, With precursor (scale of aggregation) [2]	other results
O=C/C=C/c1ccccc1 [Cinnamic ald]	1900	+	∘	–
CC1(C)C2CC=C(CCC=O)C1C2 (stereo not drawn) [Pino acetaldehyde]	86	++++	∘	–
